{"source": "patent US20230052453A1", "about": "“COMPOSITIONS AND METHODS FOR RELIEVING EFFECTS OF ALCOHOL CONSUMPTION” (MOXY DISTRIBUTION, INC., priority 2021, published 2023)", "key": {"[1]": {"assay": "Blood alcohol content (BAC) of participants after alcoholic drinks", "assay_type": "in vivo, human", "conditions": "half dose 30 minutes prior to drinking", "procedure": "Participants were also administered a verbal processing test.\nThe differential in blood alcohol content between the participants receiving DHM and nicotinamide mononucleotide and emoxypine succinate and the participants in control group were substantial as show in Table 1."}, "[2]": {"conditions": "cited from earlier work"}, "[3]": {"system": "alcohol dehydrogenase (ADH) and acetaldehyde dehydrogenase (ALDH)", "conditions": "cited from earlier work"}}, "data": [{"smiles": "O=C1c2c(O)cc(O)cc2O[C@H](c2cc(O)c(O)c(O)c2)[C@H]1O", "note": "[DHM, (2R,3R)-3,5,7-trihydroxy-2-(3,4,5-trihydroxyphenyl)-2,3-dihydrochromen-4-one]", "values": [{"measurement": "MEAN BAC LEVELS", "setting": "[1]; elapsed time 00 h 15 m, cumulative drinks 1", "result": 0.022, "unit": "%"}, {"measurement": "MEAN BAC LEVELS", "setting": "[1]; elapsed time 00 h 45 m, cumulative drinks 2", "result": 0.051, "unit": "%"}, {"measurement": "MEAN BAC LEVELS", "setting": "[1]; elapsed time 01 h 15 m, cumulative drinks 3", "result": 0.062, "unit": "%"}, {"measurement": "MEAN BAC LEVELS", "setting": "[1]; elapsed time 01 h 45 m, cumulative drinks 4", "result": 0.087, "unit": "%"}, {"measurement": "MEAN BAC LEVELS", "setting": "[1]; elapsed time 02 h 15 m, cumulative drinks 5", "result": 0.109, "unit": "%"}, {"measurement": "MEAN BAC LEVELS", "setting": "[1]; elapsed time 02 h 45 m, cumulative drinks 6", "result": 0.131, "unit": "%"}, {"measurement": "time required to reach peak plasma concentration", "setting": "[2]; after oral administration at a dose of 20 mg/kg", "result": 2.67, "unit": "h"}, {"measurement": "bioavailability after oral administration", "setting": "[2]; rats, oral", "result": 4.02, "unit": "%"}, {"measurement": "alcohol (EtOH) elimination", "setting": "[3]; by increasing the activities of ADH and ALDH", "result": "promotes alcohol (EtOH) elimination"}, {"measurement": "alcohol-induced liver injuries", "setting": "[3]; in vivo", "result": "ameliorates alcohol-induced liver injuries"}]}]}
